Consider one compound from US20180228728A1, “DOSAGE FORM FOR ADMINISTRATION OF OPIOID ANTAGONISTS” (priority 2017, published 2018).

This series relates to cultured human gingival tissues. In kind it is in vitro ADME. The conditions noted are these: as excipient in naloxone ODF.

Experimental: Each ODF sample was die-cut into 1 inch (2.54 cm) diameter discs (area, 5.067 cm^2). To simulate the oral mucosa, an in vitro oral mucosa 3D model produced from primary human gingival keratinocytes was used (SkinAxis, LLC, North Brunswick, N.J., USA). Briefly, the cultured human gingival tissues were incubated in 6-well plates at 37° C. in a CO2 incubator. To prepare the receiver fluid, 0.3 mL of prewarmed phosphate buffered solution at pH 6.8 was pipetted into each well. Next, 0.5 mL of donor solution or the die-cut discs were placed onto the tissues. The plates were returned to the incubator for 15 minutes. The tissues were moved to the next wells and the receiver media was collected. This was repeated for the remaining time points. The receiver media was analyzed by HPLC in a 5 μm, 4.6×50 mm KINETEX C18 column (Phenomenex, Inc., Torrance, Calif., USA) using art standard protocols. Briefly, the mobile phase comprised 50 mM NH4Ac/Acetonitrile at 88/22. The flow rate was 1.0 mL/min and the column temperature was about 40° C. with a UV of 220 nm and a retention time of 1.8 min.

As to `CCCCCCCC/C=C\CCCCCCCCO` [oleyl alcohol, Oleyl alcohol], the “effect of permeation enhancer on permeation percentage of the naloxone” value is recorded as “increased the permeation percentage of the naloxone”.
